According to PubChem BioAssay AID1963832 (Molecular Pharmacology Branch, DTP, NCI, 2024):

System: 885724-159-R-J1-PDC complex spheroid viability
Test: Anticancer human tumor 885724-159-R-J1-PDC patient-derived pancreatic adenocarcinoma cell line growth inhibition [POLQ]
Conditions: for IC50: curve of first compound; for viability, T/C: stronger effect = lower value
How it was run: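 Patient-derived tumour cells were co-cultured with HUVEC and mesenchymal stem cells as multicellular spheroids at 37 °C. They were treated with POLQ inhibitors (novobiocin, ART-558, RP6685) alone or combined with other agents. Top concentrations were at or near clinical Cmax (otherwise 10 microM; SN-38 at 1 microM), decreasing in half-log steps.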

[1] = second compound 0.0316 µM, first compound 0.0316 µM
[2] = second compound 0.0316 µM, first compound 0.1 µM
[3] = second compound 0.1 µM, first compound 0.0316 µM
[4] = second compound 0.1 µM, first compound 0.1 µM
[5] = second compound 0.316 µM, first compound 0.0316 µM
[6] = second compound 0.316 µM, first compound 0.1 µM
[7] = second compound 1 µM, first compound 0.0316 µM
[8] = second compound 1 µM, first compound 0.1 µM
[9] = second compound 3.16 µM, first compound 0.0316 µM
[10] = second compound 3.16 µM, first compound 0.1 µM
[11] = second compound 10 µM, first compound 0.0316 µM
[12] = second compound 10 µM, first compound 0.1 µM
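Also: spheroids exposed to compounds for 7 days.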

## CC[C@@]1(O)C(=O)OCc2c1cc1n(c2=O)Cc2cc3c(CN(C)C)c(O)ccc3nc2-1 + Nc1ccc(C#CCN(C(=O)Cc2ncc(C(F)(F)F)cc2C(F)(F)F)c2ccc(F)cc2)nn1
Second compound 0.0316 µM
  IC50: > 100 nM
Second compound 0.1 µM
  IC50: > 100 nM
Second compound 0.316 µM
  IC50: > 100 nM
Second compound 1 µM
  IC50: > 100 nM
Second compound 3.16 µM
  IC50: > 100 nM
Second compound 10 µM
  IC50: > 100 nM
Second compound 0.0316 µM, first compound 0.000316 µM
  viability, T/C: 91.3%
Second compound 0.0316 µM, first compound 0.001 µM
  viability, T/C: 89.7%
Second compound 0.0316 µM, first compound 0.00316 µM
  viability, T/C: 94.6%
Second compound 0.0316 µM, first compound 0.01 µM
  viability, T/C: 83.6%
[1]
  viability, T/C: 77.8%
[2]
  viability, T/C: 63.3%
Second compound 0.1 µM, first compound 0.000316 µM
  viability, T/C: 108%
Second compound 0.1 µM, first compound 0.001 µM
  viability, T/C: 93%
Second compound 0.1 µM, first compound 0.00316 µM
  viability, T/C: 89.4%
Second compound 0.1 µM, first compound 0.01 µM
  viability, T/C: 82%
[3]
  viability, T/C: 72.2%
[4]
  viability, T/C: 63%
Second compound 0.316 µM, first compound 0.000316 µM
  viability, T/C: 96.7%
Second compound 0.316 µM, first compound 0.001 µM
  viability, T/C: 101%
Second compound 0.316 µM, first compound 0.00316 µM
  viability, T/C: 93%
Second compound 0.316 µM, first compound 0.01 µM
  viability, T/C: 94.2%
[5]
  viability, T/C: 77%
[6]
  viability, T/C: 58.9%
Second compound 1 µM, first compound 0.000316 µM
  viability, T/C: 100%
Second compound 1 µM, first compound 0.001 µM
  viability, T/C: 91.7%
Second compound 1 µM, first compound 0.00316 µM
  viability, T/C: 85.2%
Second compound 1 µM, first compound 0.01 µM
  viability, T/C: 85.3%
[7]
  viability, T/C: 84.3%
[8]
  viability, T/C: 54.7%
Second compound 3.16 µM, first compound 0.000316 µM
  viability, T/C: 98%
Second compound 3.16 µM, first compound 0.001 µM
  viability, T/C: 102%
Second compound 3.16 µM, first compound 0.00316 µM
  viability, T/C: 98.5%
Second compound 3.16 µM, first compound 0.01 µM
  viability, T/C: 83.2%
[9]
  viability, T/C: 85.1%
[10]
  viability, T/C: 59%
Second compound 10 µM, first compound 0.000316 µM
  viability, T/C: 98.5%
Second compound 10 µM, first compound 0.001 µM
  viability, T/C: 87.2%
Second compound 10 µM, first compound 0.00316 µM
  viability, T/C: 98.8%
Second compound 10 µM, first compound 0.01 µM
  viability, T/C: 98.8%
[11]
  viability, T/C: 81.1%
[12]
  viability, T/C: 63%

## Nc1ccn(C2OC(CO)C(O)C2(F)F)c(=O)n1 (centres undefined) + Nc1ccc(C#CCN(C(=O)Cc2ncc(C(F)(F)F)cc2C(F)(F)F)c2ccc(F)cc2)nn1
Second compound 0.0316 µM
  IC50: 1040 nM
Second compound 0.1 µM
  IC50: 1880 nM
Second compound 0.316 µM
  IC50: 2270 nM
Second compound 1 µM
  IC50: 886 nM
Second compound 3.16 µM
  IC50: > 10000 nM
Second compound 10 µM
  IC50: > 10000 nM
[1]
  viability, T/C: 65.5%
[2]
  viability, T/C: 57.2%
Second compound 0.0316 µM, first compound 0.316 µM
  viability, T/C: 47%
Second compound 0.0316 µM, first compound 1 µM
  viability, T/C: 55.1%
Second compound 0.0316 µM, first compound 3.16 µM
  viability, T/C: 54.8%
Second compound 0.0316 µM, first compound 10 µM
  viability, T/C: 42.1%
[3]
  viability, T/C: 70.2%
[4]
  viability, T/C: 60.2%
Second compound 0.1 µM, first compound 0.316 µM
  viability, T/C: 54.3%
Second compound 0.1 µM, first compound 1 µM
  viability, T/C: 55.2%
Second compound 0.1 µM, first compound 3.16 µM
  viability, T/C: 49.6%
Second compound 0.1 µM, first compound 10 µM
  viability, T/C: 44.2%
[5]
  viability, T/C: 72%
[6]
  viability, T/C: 62.9%
Second compound 0.316 µM, first compound 0.316 µM
  viability, T/C: 56.5%
Second compound 0.316 µM, first compound 1 µM
  viability, T/C: 53.2%
Second compound 0.316 µM, first compound 3.16 µM
  viability, T/C: 49.1%
Second compound 0.316 µM, first compound 10 µM
  viability, T/C: 46.3%
[7]
  viability, T/C: 72.4%
[8]
  viability, T/C: 55.4%
Second compound 1 µM, first compound 0.316 µM
  viability, T/C: 54.2%
Second compound 1 µM, first compound 1 µM
  viability, T/C: 51.2%
Second compound 1 µM, first compound 3.16 µM
  viability, T/C: 49%
Second compound 1 µM, first compound 10 µM
  viability, T/C: 47.1%
[9]
  viability, T/C: 77.5%
[10]
  viability, T/C: 60.9%
Second compound 3.16 µM, first compound 0.316 µM
  viability, T/C: 55.7%
Second compound 3.16 µM, first compound 1 µM
  viability, T/C: 50.8%
Second compound 3.16 µM, first compound 3.16 µM
  viability, T/C: 55.8%
Second compound 3.16 µM, first compound 10 µM
  viability, T/C: 46.4%
[11]
  viability, T/C: 96%
[12]
  viability, T/C: 72%
Second compound 10 µM, first compound 0.316 µM
  viability, T/C: 69.3%
Second compound 10 µM, first compound 1 µM
  viability, T/C: 59.2%
Second compound 10 µM, first compound 3.16 µM
  viability, T/C: 54.9%
Second compound 10 µM, first compound 10 µM
  viability, T/C: 55.2%
